Measurements published in patent US12324893B2, “Triptan microporation delivery system” (PassPort Technologies, Inc., priority 2019, dated 2025).
Read-outs that look alike come from different tables or passages of the source.

Legend:
[1] = Administration route study in hairless rats (Example 4); type: in vivo; settings: Group 2: 2 mg zolmitriptan
[2] = Pain by poration (Examples 7-9); type: in vivo, guinea pigs
Method: (§1) This example describes various effects of filament density. To investigate the effect of filament density on PK profile and side effects (pain by poration and skin irritation), these studies were conducted. The filament density mainly affects the area to be utilized for the transfer of body fluid and ingredients in between skin and patch. The range of filament density was 100 filaments/cm^2 to 400 filaments/cm^2, and the poration energy was from 3 to 4 mJ/filament.
(§2) This example describes various effects to heating energy. The poration energy is related to the pore shape such as depth and width.
(§3) This example describes the selection of a desirable filament array size. Assuming the higher dose than 2 mg dose with the conditions 400 filaments/cm^2 filament density and 4 or 5 mJ/filament energy, filament array size may need to be made bigger. The range of dose was 0.5 to 4 mg, and the range of filament array size was 1.0 to 2.0 cm^2.

[3] = Effect of filament density, poration energy and filament array size on PK profile (Examples 7-9); parameters: species or system guinea pigs; settings: guinea pig, in vivo; for bioavailability: sc, relative bioavailability against SC injection, read-out: Bioavailability ± SE; for AUC / Cmax / Tmax: topical or ocular
Method: as §1, §2, §3

[4] = rat, blood, inhaled or intranasal
[5] = 0.5 mg, Table 17 #1: dose 0.50 mg, 4 mJ/filament, filament array area 1.0 cm^2, 400 filaments/cm^2
[6] = 2 mg, Table 13 # 1: 100 filaments/cm^2, 3 mJ/filament, area 1.0 cm^2, patch 2.00 mg Zolmitriptan
[7] = 2 mg, Table 13 # 2: 200 filaments/cm^2, 3 mJ/filament, area 1.0 cm^2, patch 2.00 mg Zolmitriptan
[8] = 2 mg, Table 13 # 3: 400 filaments/cm^2, 3 mJ/filament, area 1.0 cm^2, patch 2.00 mg Zolmitriptan
[9] = 2 mg, Table 13 # 4: 100 filaments/cm^2, 4 mJ/filament, area 1.0 cm^2, patch 2.00 mg Zolmitriptan
[10] = 2 mg, Table 13 # 5: 200 filaments/cm^2, 4 mJ/filament, area 1.0 cm^2, patch 2.00 mg Zolmitriptan
[11] = 2 mg, Table 13 # 6: 400 filaments/cm^2, 4 mJ/filament, area 1.0 cm^2, patch 2.00 mg Zolmitriptan

SMILES: CN(C)CCc1c[nH]c2ccc(C[C@H]3COC(=O)N3)cc12 [Zolmitriptan]
- BA ([1]; intranasal administration, absolute bioavailability against IV injection): 12.0%
- AUC [1, 4]: 239 ng·h/mL
- Cmax [1, 4]: 127 ng/mL
- Tmax [1, 4]: 2.25 h
- Pain by poration ± SD ([2]; Table 13 # 1: 100 filaments/cm^2, 3 mJ/filament, area 1.0 cm^2): 0.0 ± 0.0
- Pain by poration ± SD ([2]; Table 13 # 2: 200 filaments/cm^2, 3 mJ/filament, area 1.0 cm^2): 0.6 ± 0.5
- Pain by poration ± SD ([2]; Table 13 # 3: 400 filaments/cm^2, 3 mJ/filament, area 1.0 cm^2): 0.5 ± 0.6
- Pain by poration ± SD ([2]; Table 13 # 4: 100 filaments/cm^2, 4 mJ/filament, area 1.0 cm^2): 0.8 ± 1.0
- Pain by poration ± SD ([2]; Table 13 # 5: 200 filaments/cm^2, 4 mJ/filament, area 1.0 cm^2): 1.8 ± 0.4
- Pain by poration ± SD ([2]; Table 13 # 6: 400 filaments/cm^2, 4 mJ/filament, area 1.0 cm^2): 1.8 ± 0.5
- Pain by poration ± SD ([2]; Table 15 # 1: 400 filaments/cm^2, 2 mJ/filament, area 1.0 cm^2): 0.3 ± 0.5
- Pain by poration ± SD ([2]; Table 15 # 2: 400 filaments/cm^2, 3 mJ/filament, area 1.0 cm^2): 0.5 ± 0.6
- Pain by poration ± SD ([2]; Table 15 # 3: 400 filaments/cm^2, 4 mJ/filament, area 1.0 cm^2): 1.8 ± 0.5
- Pain by poration ± SD ([2]; Table 15 # 4: 400 filaments/cm^2, 5 mJ/filament, area 1.0 cm^2): 0.8 ± 1.0
- Pain by poration ± SD ([2]; Table 17 #1: dose 0.50 mg, 4 mJ/filament, 1.0 cm^2, 400 filaments/cm^2): 0.5 ± 0.6
- Pain by poration ± SD ([2]; Table 17 # 2: dose 2.00 mg, 4 mJ/filament, 1.0 cm^2, 400 filaments/cm^2): 1.8 ± 0.5
- Pain by poration ± SD ([2]; Table 17 # 3: dose 3.00 mg, 4 mJ/filament, 1.0 cm^2, 400 filaments/cm^2): 0.3 ± 0.5
- Pain by poration ± SD ([2]; Table 17 # 4: dose 4.00 mg, 4 mJ/filament, 1.5 cm^2, 400 filaments/cm^2): 2.3 ± 0.5
- Pain by poration ± SD ([2]; Table 17 # 5: dose 4.00 mg, 4 mJ/filament, 2.0 cm^2, 400 filaments/cm^2): 2.8 ± 0.5
- Pain by poration ± SD ([2]; Table 17 # 6: dose 4.00 mg, 5 mJ/filament, 1.5 cm^2, 400 filaments/cm^2): 2.8 ± 0.5
- bioavailability ([3]; 0.5 mg, Table 17 #1: dose 0.50 mg, 4 mJ/filament, 1.0 cm^2, 400 filaments/cm^2): 70.6 ± 4.5%
- bioavailability ([3]; 2 mg, Table 13 # 1: 100 filaments/cm^2, 3 mJ/filament, 1.0 cm^2, 2.00 mg patch): 11.5 ± 0.6%
- bioavailability ([3]; 2 mg, Table 13 # 2: 200 filaments/cm^2, 3 mJ/filament, 1.0 cm^2, 2.00 mg patch): 73.8 ± 8.6%
- bioavailability ([3]; 2 mg, Table 13 # 3: 400 filaments/cm^2, 3 mJ/filament, 1.0 cm^2, 2.00 mg patch): 85 ± 5.6%
- bioavailability ([3]; 2 mg, Table 13 # 4: 100 filaments/cm^2, 4 mJ/filament, 1.0 cm^2, 2.00 mg patch): 50.3 ± 5.5%
- bioavailability ([3]; 2 mg, Table 13 # 5: 200 filaments/cm^2, 4 mJ/filament, 1.0 cm^2, 2.00 mg patch): 49.9 ± 7.7%
- bioavailability ([3]; 2 mg, Table 13 # 6: 400 filaments/cm^2, 4 mJ/filament, 1.0 cm^2, 2.00 mg patch): 102 ± 13.3%
- bioavailability ([3]; 2 mg, Table 15 # 1: 400 filaments/cm^2, 2 mJ/filament, 1.0 cm^2, 2.00 mg patch): 72.4 ± 10%
- bioavailability ([3]; 2 mg, Table 15 # 2: 400 filaments/cm^2, 3 mJ/filament, 1.0 cm^2, 2.00 mg patch): 85 ± 5.6%
- bioavailability ([3]; 2 mg, Table 15 # 3: 400 filaments/cm^2, 4 mJ/filament, 1.0 cm^2, 2.00 mg patch): 102 ± 13.3%
- bioavailability ([3]; 2 mg, Table 15 # 4: 400 filaments/cm^2, 5 mJ/filament, 1.0 cm^2, 2.00 mg patch): 95.5 ± 5.3%
- bioavailability ([3]; 2 mg, Table 17 # 2: dose 2.00 mg, 4 mJ/filament, 1.0 cm^2, 400 filaments/cm^2): 102 ± 13.3%
- bioavailability ([3]; 3 mg, Table 17 # 3: dose 3.00 mg, 4 mJ/filament, 1.0 cm^2, 400 filaments/cm^2): 76 ± 4.9%
- bioavailability ([3]; 4 mg, Table 17 # 4: dose 4.00 mg, 4 mJ/filament, 1.5 cm^2, 400 filaments/cm^2): 88.9 ± 4.6%
- bioavailability ([3]; 4 mg, Table 17 # 5: dose 4.00 mg, 4 mJ/filament, 2.0 cm^2, 400 filaments/cm^2): 105 ± 7.9%
- bioavailability ([3]; 4 mg, Table 17 # 6: dose 4.00 mg, 5 mJ/filament, 1.5 cm^2, 400 filaments/cm^2): 97.9 ± 12.3%
- AUC [3, 5]: 364 ± 23 ng·h/mL
- Cmax [3, 5]: 190 ± 34 ng/mL
- Tmax [3, 5]: 0.63 ± 0.13 h
- AUC [3, 6]: 238 ± 13 ng·h/mL
- Cmax [3, 6]: 60 ± 13 ng/mL
- Tmax [3, 6]: 2.75 ± 1.25 h
- AUC [3, 7]: 1520 ± 177 ng·h/mL
- Cmax [3, 7]: 520 ± 51 ng/mL
- Tmax [3, 7]: 1.31 ± 0.19 h
- AUC [3, 8]: 1750 ± 116 ng·h/mL
- Cmax [3, 8]: 487 ± 63 ng/mL
- Tmax [3, 8]: 1.63 ± 0.13 h
- AUC [3, 9]: 1040 ± 113 ng·h/mL
- Cmax [3, 9]: 222 ± 30 ng/mL
- Tmax [3, 9]: 2.75 ± 0.72 h
- AUC [3, 10]: 1030 ± 159 ng·h/mL
- Cmax [3, 10]: 423 ± 30 ng/mL
- Tmax [3, 10]: 0.81 ± 0.06 h
- AUC [3, 11]: 2100 ± 275 ng·h/mL
- Cmax [3, 11]: 896 ± 191 ng/mL
- Tmax [3, 11]: 1.06 ± 0.16 h
